These results are taken from US20260116921A1, “PEPTIDE INHIBITORS OF INTERLEUKIN-23 RECEPTOR AND THEIR USE TO TREAT INFLAMMATORY DISEASES” (priority 2018, published 2026).

Bridge positions count the residues as written; N and C are the ends. Square brackets hold non-standard residues; d marks the D form. Peptide text beside a SMILES is read from it. Trp(7-Me) = Cc1cccc2c(C[C@H](N)C(=O)O)c[nH]c12; 2Nal = N[C@@H](Cc1ccc2ccccc2c1)C(=O)O; AEF = NCCOc1ccc(C[C@H](N)C(=O)O)cc1; Cit = NC(=O)NCCC[C@H](N)C(=O)O; αMeL = CC(C)C[C@](C)(N)C(=O)O; Pen = CC(C)(S)[C@H](N)C(=O)O; αMeK = C[C@](N)(CCCCN)C(=O)O; Abu = CC[C@H](N)C(=O)O; βAla = NCCC(=O)O

For data set [1], the target named is T1, IL-23R (Homo sapiens, UniProt Q5VWK5).
T1 sequence (Q5VWK5 24-629): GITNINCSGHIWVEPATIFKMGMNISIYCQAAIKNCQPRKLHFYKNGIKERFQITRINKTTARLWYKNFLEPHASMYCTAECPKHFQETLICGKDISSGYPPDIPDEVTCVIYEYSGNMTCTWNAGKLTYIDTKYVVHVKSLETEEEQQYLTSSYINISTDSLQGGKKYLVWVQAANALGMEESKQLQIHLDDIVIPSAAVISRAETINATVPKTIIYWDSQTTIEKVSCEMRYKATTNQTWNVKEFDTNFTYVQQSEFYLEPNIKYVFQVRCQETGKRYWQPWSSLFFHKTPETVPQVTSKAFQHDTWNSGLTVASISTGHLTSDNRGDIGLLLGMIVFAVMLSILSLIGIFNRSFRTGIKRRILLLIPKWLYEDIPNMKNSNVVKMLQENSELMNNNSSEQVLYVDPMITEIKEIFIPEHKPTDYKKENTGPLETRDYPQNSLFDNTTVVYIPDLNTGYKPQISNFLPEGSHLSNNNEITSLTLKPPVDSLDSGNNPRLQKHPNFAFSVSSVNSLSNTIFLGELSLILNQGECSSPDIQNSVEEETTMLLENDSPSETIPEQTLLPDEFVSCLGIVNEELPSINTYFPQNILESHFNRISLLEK
The data set is described as follows: DB cells IL23R pSTAT3 cell assay (pStat3 HTRF). It is filed as cell-based. Particulars: Table E3; DB cells, IL-23 0.5 nM, 30 minutes at 37° C.; read-out: pStat3 HTRF (IC50). The method, boiled down: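 DB cells (5×10E5/well, RPMI-1640 + 10% FBS) stimulated with 0.5 nM final IL-23 plus serially diluted test peptides for 30 min at 37 °C, 5% CO2. Phospho-STAT3 (Tyr705) in lysates measured by HTRF using a two-plate protocol.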

Data set [2] is described as follows: in vitro. Particulars: human, 20% fecal homogenate (supernatant), anaerobic, pH 6.8.
Data set [3] is described as follows: in vitro. Particulars: both, SD, rat, plasma (EDTA).
Another data set relates to NK cells. The data set is described as follows: NK cell based assay (IL-23/IL-18-induced IFNγ, Quantikine ELISA). Particulars: human primary NK cells, IL-23 at EC50 to EC75 + IL-18 10 ng/mL, IFNγ after 20 to 24 hours. How it is done: killer (NK) cells, purified from human peripheral blood of healthy donors by negative selection (Miltenyi Biotech, Cat #130-092-657), were cultured in complete media (RPMI 1640 containing […], L-glutamine and penicillin-streptomycin) in the presence of IL-2 (RnD, Cat #202-IL-010/CF) at 25 ng/mL. After 7 days, cells were centrifuged, and resuspended in complete media at IE6 cells/mL. […] After 20 to 24 hours, IFNγ in the supernatant was quantified using Quantikine ELISA (RnD, Cat #DIF50).

Data set [4] is described as follows: in vitro. Particulars: cynomolgus monkey, 20% fecal homogenate (supernatant), anaerobic, pH 6.8.
The target in data set [5] is T2, IL-23R (human, UniProt Q5VWK5 24-629).
T2 sequence (looked up): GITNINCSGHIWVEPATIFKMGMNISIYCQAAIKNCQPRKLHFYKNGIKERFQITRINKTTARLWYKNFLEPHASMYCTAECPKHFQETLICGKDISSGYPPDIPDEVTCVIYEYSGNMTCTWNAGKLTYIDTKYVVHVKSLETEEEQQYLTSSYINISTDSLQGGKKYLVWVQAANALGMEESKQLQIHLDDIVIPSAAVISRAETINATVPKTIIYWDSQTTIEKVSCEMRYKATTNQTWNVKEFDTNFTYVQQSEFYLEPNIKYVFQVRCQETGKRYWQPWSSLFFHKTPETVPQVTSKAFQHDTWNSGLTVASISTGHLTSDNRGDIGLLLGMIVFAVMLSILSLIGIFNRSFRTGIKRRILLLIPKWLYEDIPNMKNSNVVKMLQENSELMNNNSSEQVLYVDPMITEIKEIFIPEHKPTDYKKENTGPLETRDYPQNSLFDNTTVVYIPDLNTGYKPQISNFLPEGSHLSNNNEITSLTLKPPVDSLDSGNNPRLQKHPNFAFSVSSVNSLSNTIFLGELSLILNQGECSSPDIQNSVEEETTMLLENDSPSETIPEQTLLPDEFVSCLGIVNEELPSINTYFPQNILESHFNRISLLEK
The data set can be described thus: cell-based or functional assay.

Data set [6] addresses T2, IL-23R. The data set is described as follows: cell-based or functional assay. The source holds these as a separate data set.

Turning to `CC(=O)NCCCC[C@@H]1NC(=O)[C@@H](NC(C)=O)C(C)(C)SSC(C)(C)[C@@H](C(=O)N[C@@H](Cc2ccc(OCCN)cc2)C(=O)N[C@@H](Cc2ccc3ccccc3c2)C(=O)N[C@@](C)(CCCCN)C(=O)N[C@@H](CCCCNC(C)=O)C(=O)N[C@@H](CC(N)=O)C(=O)NCCC(N)=O)NC(=O)[C@H](CCC(N)=O)NC(=O)[C@H](Cc2c[nH]c3c(C)cccc23)NC(=O)[C@H]([C@@H](C)O)NC1=O` [compound 239], the IC50 was 1 to 10 nM on IL-23R [1] and less than 10 nM in the data set with NK cells. Also, the half-life at 20 μM in “in vitro [2]” was more than 24 h; in “in vitro [3]”, more than 24 h; in “in vitro [4]” it was 7 h.
For `CC(=O)NCCCC[C@H](NC(=O)[C@](C)(CC(C)C)NC(=O)[C@H](Cc1ccc2ccccc2c1)NC(=O)[C@H](Cc1ccc(OCCN)cc1)NC(=O)[C@H]1NC(=O)[C@H](CCC(N)=O)NC(=O)[C@H](Cc2c[nH]c3c(C)cccc23)NC(=O)[C@H]([C@@H](C)O)NC(=O)[C@H](CC(N)=O)NC(=O)[C@@H](NC(C)=O)C(C)(C)SSC1(C)C)C(=O)N[C@@](C)(CC(C)C)C(=O)NCCC(N)=O` [compound 225], the IC50 on IL-23R [1] fell in the range of 10 to 100 nM; with NK cells it was 101 to 500 nM. For the same molecule, the half-life at 20 μM in the data set “in vitro [2]” and in the data set “in vitro [4]” was more than 24 h throughout.
With `CC(=O)NCCCC[C@H](NC(=O)[C@](C)(CC(C)C)NC(=O)[C@H](Cc1ccc2ccccc2c1)NC(=O)[C@H](Cc1ccc(OCCN)cc1)NC(=O)[C@H]1NC(=O)[C@H](CCC(N)=O)NC(=O)[C@H](Cc2c[nH]c3c(C)cccc23)NC(=O)[C@H]([C@@H](C)O)NC(=O)[C@H](CC(N)=O)NC(=O)[C@@H](NC(C)=O)C(C)(C)SSC1(C)C)C(=O)N(C)CC(=O)NCCC(N)=O` [compound 224], the IC50 was more than 100 nM at IL-23R [1] and 101 to 500 nM in the data set with NK cells. The half-life at 20 μM in “in vitro [2]” and in “in vitro [4]” was more than 24 h each time.
As for `CC(=O)NCCCC[C@H](NC(=O)[C@](C)(CC(C)C)NC(=O)[C@H](Cc1ccc2ccccc2c1)NC(=O)[C@H](Cc1ccc(OCCN)cc1)NC(=O)[C@H]1NC(=O)[C@H](CCCNC(N)=O)NC(=O)[C@H](Cc2c[nH]c3c(C)cccc23)NC(=O)[C@H]([C@@H](C)O)NC(=O)[C@H](CC(N)=O)NC(=O)[C@@H](NC(C)=O)C(C)(C)SSC1(C)C)C(=O)N[C@@H](CC(N)=O)C(=O)NCCC(N)=O` [compound 227] (Ac-[Pen]NT[Trp(7-Me)][Cit][Pen][AEF][2Nal][αMeL]K(Ac)N[βAla]-NH2; disulfide 1-6), the IC50 at IL-23R [1] is less than 1 nM; in the data set with NK cells, less than 10 nM.
For `CC(=O)NCCCC[C@H](NC(=O)[C@](C)(CCCCN)NC(=O)[C@H](Cc1ccc2ccccc2c1)NC(=O)[C@H](Cc1ccc(OCCN)cc1)NC(=O)[C@H]1NC(=O)[C@H](CCC(N)=O)NC(=O)[C@H](Cc2c[nH]c3c(C)cccc23)NC(=O)[C@H]([C@@H](C)O)NC(=O)[C@H](CC(N)=O)NC(=O)[C@@H](NC(C)=O)C(C)(C)SSC1(C)C)C(=O)N[C@@H](CC(N)=O)C(=O)NCCC(N)=O` [compound 202], the IC50 is 1 to 10 nM at IL-23R [1] and less than 10 nM with NK cells. The molecule also had a half-life at 20 μM in the data set “in vitro [4]” of 12 h.
Turning to `CC(=O)NCCCC[C@H](NC(=O)[C@](C)(CC(C)C)NC(=O)[C@H](Cc1ccc2ccccc2c1)NC(=O)[C@H](Cc1ccc(OCCN)cc1)NC(=O)[C@H]1NC(=O)[C@H](CCC(N)=O)NC(=O)[C@H](Cc2c[nH]c3c(C)cccc23)NC(=O)[C@H]([C@@H](C)O)NC(=O)[C@H](CC(N)=O)NC(=O)[C@@H](NC(C)=O)C(C)(C)SSC1(C)C)C(=O)N[C@@H](CCCNC(N)=O)C(=O)NCCC(N)=O` [compound 206], the IC50 on IL-23R [1] fell in the range of 10 to 100 nM; in the data set with NK cells it was 11 to 100 nM. In addition, the half-life at 20 μM is 20 h in “in vitro [2]” and more than 24 h in the data set “in vitro [4]”.

B1: SEQ ID NO: 245 (peptide)
peptide: XNTXKXXXXKNL
modifications: Ac-[Pen]-NT-[W(7-Me)]-[Lys(Ac)]-[Pen]-Phe[4-(2-aminoethoxy)]-[2-Nal]-[a-MeLys]-[Lys(Ac)]-N-[(D)Leu]-NH2; Pen-Pen disulfide
Turning to B1, in the data set with IL-23R [5], the “NK Cell Assay (nM) IC50” value is less than 10 nM. The “pStat3 HTRF (nM) IC50” value in the data set with IL-23R [6] is less than 1 nM.

B2: SEQ ID NO: 251 (peptide)
peptide: XNTXKXXXXKNV
modifications: Ac-[Pen]-NT-[W(7-Me)]-[Lys(Ac)]-[Pen]-Phe[4-(2-aminoethoxy)]-[2-Nal]-[a-MeLys]-[Lys(Ac)]-N-[(D)Val]-NH2; Pen-Pen disulfide
B2: the “NK Cell Assay (nM) IC50” value with IL-23R [5] is less than 10 nM. Besides, the “pStat3 HTRF (nM) IC50” value with IL-23R [6] was less than 1 nM.
Regarding Ac-[dR][Abu]QT[Trp(7-Me)]K(Ac)C[AEF][2Nal][αMeK]K(Ac)N[dK]-NH2 (thioether 2-7) [SEQ ID NO: 324], in the data set with IL-23R [5], the “NK Cell Assay (nM) IC50” value is less than 10 nM.
In the case of Ac-[Pen]NT[Trp(7-Me)][Cit][Pen][AEF][2Nal][αMeK]K(Ac)N[dS]-NH2 (disulfide 1-6 (inferred)) [SEQ ID NO: 261], in the data set with IL-23R [5], the “NK Cell Assay (nM) IC50” value is less than 10 nM. Further, the “pStat3 HTRF (nM) IC50” value with IL-23R [6] is less than 1 nM.

B3: SEQ ID NO: 258 (peptide)
peptide: XNTXKXXXXKNF
modifications: Ac-[Pen]-NT-[W(7-Me)]-[Lys(Ac)]-[Pen]-Phe[4-(2-aminoethoxy)]-[2-Nal]-[a-MeLys]-[Lys(Ac)]-N-[(D)Phe]-NH2; Pen-Pen disulfide
Turning to B3, the “NK Cell Assay (nM) IC50” value in the data set with IL-23R [5] is less than 10 nM. The “pStat3 HTRF (nM) IC50” value in the data set with IL-23R [6] was less than 1 nM.
